Reference: ChEMBL document CHEMBL1201861, “Genomics of Drug Sensitity in Cancer screening data, Wellcome Trust Sanger Institute”

Key:
[1] = test system: RT-4; assay: SANGER: Inhibition of human RT4 cell growth in a cell viability assay.; format: functional, cell-based; conditions: Homo sapiens, RT-4
[2] = test system: TE-441-T; assay: cells; format: functional, cell-based; conditions: Homo sapiens
Description: SANGER: Inhibition of human TE-441-T cell growth in a cell viability assay.

[3] = test system: NCI-H187; assay: cells; format: functional, cell-based; conditions: Homo sapiens;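 further: growth inhibition of NCI-H187 cells, read out as cell viability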
Description: SANGER: Inhibition of human NCI-H187 cell growth in a cell viability assay.

[4] = test system: NCI-H838; assay: cells; format: functional, cell-based; conditions: Homo sapiens;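 further: growth inhibition of human NCI-H838 cells, read out by a cell viability assay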
Description: SANGER: Inhibition of human NCI-H838 cell growth in a cell viability assay.

[5] = test system: HuO9; assay: cells; format: functional, cell-based, Homo sapiens; conditions: Homo sapiens, HuO9;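 further: growth inhibition of HuO9 cells, read out with a cell viability assay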
Description: SANGER: Inhibition of human HuO9 cell growth in a cell viability assay.

[6] = test system: Caov-3 cell line; assay: cells; format: functional, cell-based; conditions: Homo sapiens;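 further: cell growth inhibition read out by a viability assay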
Description: SANGER: Inhibition of human Caov-3 cell growth in a cell viability assay.

[7] = test system: NCI-H630; assay: cells; format: functional, cell-based, Homo sapiens; conditions: Homo sapiens, NCI-H630;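 further: growth inhibition of NCI-H630 cells, read out with a cell viability assay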
Description: SANGER: Inhibition of human NCI-H630 cell growth in a cell viability assay.

[8] = test system: IPC-298; assay: SANGER: Inhibition of human IPC-298 cell growth in a cell viability assay.; format: functional, cell-based
[9] = test system: CESS; assay: SANGER: Inhibition of human CESS cell growth in a cell viability assay.; format: functional, cell-based
[10] = test system: SNU-475; assay: cells; format: functional, cell-based; conditions: Homo sapiens
Description: SANGER: Inhibition of human SNU-475 cell growth in a cell viability assay.

[11] = test system: SK-CO-1; assay: cells; format: functional, cell-based; conditions: Homo sapiens;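 further: growth inhibition of SK-CO-1 cells, determined by a viability readout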
Description: SANGER: Inhibition of human SK-CO-1 cell growth in a cell viability assay.

[12] = test system: PLC-PRF-5; assay: cells; format: functional, cell-based; conditions: Homo sapiens;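 further: growth inhibition of human PLC-PRF-5 cells, read out with a viability assay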
Description: SANGER: Inhibition of human PLC-PRF-5 cell growth in a cell viability assay.

[13] = test system: LB647-SCLC; assay: cells; format: functional, cell-based; conditions: Homo sapiens;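 further: cell growth inhibition, read out by a viability assay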
Description: SANGER: Inhibition of human LB647-SCLC cell growth in a cell viability assay.

[14] = test system: LU-165; assay: cells; format: functional, cell-based; conditions: Homo sapiens
Description: SANGER: Inhibition of human LU-165 cell growth in a cell viability assay.

[15] = test system: EVSA-T; assay: cells; format: functional, cell-based, Homo sapiens; conditions: Homo sapiens, EVSA-T;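 further: growth inhibition of EVSA-T cells, read out with a cell viability assay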
Description: SANGER: Inhibition of human EVSA-T cell growth in a cell viability assay.

[16] = test system: SJRH30; assay: cells; format: functional, cell-based; conditions: Homo sapiens;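 further: growth inhibition of human SJRH30 cells, read out with a cell viability assay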
Description: SANGER: Inhibition of human SJRH30 cell growth in a cell viability assay.

[17] = test system: CPC-N; assay: cells; format: functional, cell-based; conditions: Homo sapiens;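 further: growth inhibition of CPC-N cells, with a cell viability assay as the readout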
Description: SANGER: Inhibition of human CPC-N cell growth in a cell viability assay.

[18] = test system: EW-7; assay: SANGER: Inhibition of human EW-7 cell growth in a cell viability assay.; format: functional, cell-based; conditions: Homo sapiens, EW-7
[19] = test system: SCLC-21H; assay: cells; format: functional, cell-based; conditions: Homo sapiens;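 further: growth inhibition of cultured human SCLC-21H cells, read out with a cell viability assay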
Description: SANGER: Inhibition of human SCLC-21H cell growth in a cell viability assay.

[20] = test system: C-4-II; assay: SANGER: Inhibition of human C-4-II cell growth in a cell viability assay.; format: functional, cell-based
[21] = test system: NCI-H1734; assay: cells; format: functional, cell-based; conditions: Homo sapiens;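 further: growth inhibition of human NCI-H1734 cells, read out with a cell viability assay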
Description: SANGER: Inhibition of human NCI-H1734 cell growth in a cell viability assay.

[22] = test system: NCI-H1618; assay: cells; format: functional, cell-based; conditions: Homo sapiens;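 further: growth inhibition of human NCI-H1618 cells, measured by a cell viability assay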
Description: SANGER: Inhibition of human NCI-H1618 cell growth in a cell viability assay.

[23] = test system: LOUCY; assay: cells; format: functional, cell-based; conditions: Homo sapiens;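 further: growth inhibition of human LOUCY cells, read out with a cell viability assay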
Description: SANGER: Inhibition of human LOUCY cell growth in a cell viability assay.

[24] = test system: MES-SA; assay: cells; format: functional, cell-based, Homo sapiens; conditions: Homo sapiens, MES-SA;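 further: growth inhibition of human MES-SA cells, read out with a cell viability assay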
Description: SANGER: Inhibition of human MES-SA cell growth in a cell viability assay.

[25] = test system: EB-3; assay: cells; format: functional, cell-based; conditions: Homo sapiens;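 further: human EB-3 cells, growth inhibition read out via a cell viability assay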
Description: SANGER: Inhibition of human EB-3 cell growth in a cell viability assay.

[26] = test system: NCI-H1417; assay: cells; format: functional, cell-based; conditions: Homo sapiens;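 further: human NCI-H1417 cells, growth inhibition determined with a cell viability readout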
Description: SANGER: Inhibition of human NCI-H1417 cell growth in a cell viability assay.

[27] = test system: MONO-MAC-6; assay: cells; format: functional, cell-based; conditions: Homo sapiens;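 further: cell viability assay measuring growth inhibition of human MONO-MAC-6 cells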
Description: SANGER: Inhibition of human MONO-MAC-6 cell growth in a cell viability assay.

[28] = test system: KMS-12-PE; assay: cells; format: functional, cell-based; conditions: Homo sapiens;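 further: growth inhibition of human KMS-12-PE cells, measured with a cell viability assay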
Description: SANGER: Inhibition of human KMS-12-PE cell growth in a cell viability assay.

[29] = test system: DMS-53; assay: cells; format: functional, cell-based, Homo sapiens; conditions: Homo sapiens, DMS-53;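 further: cell viability assay measuring growth inhibition of human DMS-53 cells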
Description: SANGER: Inhibition of human DMS-53 cell growth in a cell viability assay.

[30] = test system: EFE-184; assay: cells; format: functional, cell-based; conditions: Homo sapiens
Description: SANGER: Inhibition of human EFE-184 cell growth in a cell viability assay.

[31] = test system: MDA-MB-468; assay: cells; format: functional, cell-based; conditions: Homo sapiens
Description: SANGER: Inhibition of human MDA-MB-468 cell growth in a cell viability assay.

[32] = test system: SNG-M; assay: cells; format: functional, cell-based; conditions: Homo sapiens
Description: SANGER: Inhibition of human SNG-M cell growth in a cell viability assay.

[33] = test system: TE-15; assay: cells; format: functional, cell-based; conditions: Homo sapiens;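 further: cell viability readout of growth inhibition in TE-15 cells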
Description: SANGER: Inhibition of human TE-15 cell growth in a cell viability assay.

[34] = test system: NCI-H719; assay: cells; format: functional, cell-based; conditions: Homo sapiens;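 further: growth inhibition of the cultured cell line, read out with a viability assay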
Description: SANGER: Inhibition of human NCI-H719 cell growth in a cell viability assay.

[35] = test system: SK-MM-2; assay: cells; format: functional, cell-based; conditions: Homo sapiens;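 further: growth inhibition of human SK-MM-2 cells, read out with a cell viability assay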
Description: SANGER: Inhibition of human SK-MM-2 cell growth in a cell viability assay.

[36] = test system: TUR; assay: cells; format: functional, cell-based; conditions: Homo sapiens;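 further: growth inhibition of human TUR cells, read out with a cell viability assay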
Description: SANGER: Inhibition of human TUR cell growth in a cell viability assay.

[37] = test system: SU-DHL-1; assay: SANGER: Inhibition of human SU-DHL-1 cell growth in a cell viability assay.; format: functional, cell-based
[38] = test system: DG-75; assay: cells; format: functional, cell-based; conditions: Homo sapiens;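 further: growth inhibition of DG-75 cells, read out with a cell viability assay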
Description: SANGER: Inhibition of human DG-75 cell growth in a cell viability assay.

[39] = test system: NCI-H2141; assay: cells; format: functional, cell-based; conditions: Homo sapiens;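 further: growth inhibition of human NCI-H2141 cells, read out with a cell viability assay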
Description: SANGER: Inhibition of human NCI-H2141 cell growth in a cell viability assay.

[40] = test system: DV-90; assay: cells; format: functional, cell-based; conditions: Homo sapiens;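 further: Read-out is a viability assay, with IC50 reflecting the drop in DV-90 cell growth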
Description: SANGER: Inhibition of human DV-90 cell growth in a cell viability assay.

[41] = test system: TT; assay: cells; format: functional, cell-based; conditions: Homo sapiens
Description: SANGER: Inhibition of human TT cell growth in a cell viability assay.

[42] = test system: NCI-H2171; assay: cells; format: functional, cell-based; conditions: Homo sapiens;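 further: growth inhibition of human NCI-H2171 cells, read out by a cell viability assay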
Description: SANGER: Inhibition of human NCI-H2171 cell growth in a cell viability assay.

[43] = test system: CCF-STTG1; assay: cells; format: functional, cell-based; conditions: Homo sapiens;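 further: growth inhibition of human CCF-STTG1 cells, determined with a cell viability read-out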
Description: SANGER: Inhibition of human CCF-STTG1 cell growth in a cell viability assay.

[44] = test system: HCC1143; assay: cells; format: functional, cell-based; conditions: Homo sapiens;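 further: growth inhibition of human HCC1143 cells, read out with a cell viability assay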
Description: SANGER: Inhibition of human HCC1143 cell growth in a cell viability assay.

[45] = test system: NCI-H522; assay: cells; format: functional, cell-based, Homo sapiens; conditions: Homo sapiens, NCI-H522;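 further: cell viability assay measuring growth inhibition of human NCI-H522 cells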
Description: SANGER: Inhibition of human NCI-H522 cell growth in a cell viability assay.

[46] = test system: U-698-M; assay: cells; format: functional, cell-based; conditions: Homo sapiens
Description: SANGER: Inhibition of human U-698-M cell growth in a cell viability assay.

[47] = test system: MDA-MB-134-VI; assay: cells; format: functional, cell-based; conditions: Homo sapiens
Description: SANGER: Inhibition of human MDA-MB-134-VI cell growth in a cell viability assay.

[48] = test system: G-361; assay: cells; format: functional, cell-based, Homo sapiens; conditions: Homo sapiens, G-361
[49] = test system: SR; assay: cells; format: functional, cell-based; conditions: Homo sapiens
Description: SANGER: Inhibition of human SR cell growth in a cell viability assay.

## Cc1cnc(-c2cnc(NCCNc3ccc(C#N)cn3)nc2-c2ccc(Cl)cc2Cl)[nH]1 [LADUVIGLUSIB]
[1]
  IC50: > 2.56 µM
[2]
  IC50: > 2.56 µM
[3]
  IC50: > 2.56 µM
[4]
  IC50: > 2.56 µM
[5]
  IC50: > 2.56 µM
[6]
  IC50: > 2.56 µM
[7]
  IC50: > 2.56 µM
[8]
  IC50: > 2.56 µM
[9]
  IC50: > 2.56 µM
[10]
  IC50: > 2.56 µM
[11]
  IC50: > 2.56 µM
[12]
  IC50: > 2.56 µM
[13]
  IC50: > 2.56 µM
[14]
  IC50: > 2.56 µM
[15]
  IC50: > 2.56 µM
[16]
  IC50: > 2.56 µM
[17]
  IC50: > 2.56 µM
[18]
  IC50: > 2.56 µM
[19]
  IC50: > 2.56 µM
[20]
  IC50: > 2.56 µM
[21]
  IC50: > 2.56 µM
[22]
  IC50: > 2.56 µM
[23]
  IC50: > 2.56 µM
[24]
  IC50: > 2.56 µM
[25]
  IC50: > 2.56 µM
[26]
  IC50: > 2.56 µM
[27]
  IC50: > 2.56 µM
[28]
  IC50: > 2.56 µM
[29]
  IC50: > 2.56 µM
[30]
  IC50: > 2.56 µM
[31]
  IC50: > 2.56 µM
[32]
  IC50: > 2.56 µM
[33]
  IC50: > 2.56 µM
[34]
  IC50: > 2.56 µM
[35]
  IC50: > 2.56 µM
[36]
  IC50: > 2.56 µM
[37]
  IC50: > 2.56 µM
[38]
  IC50: > 2.56 µM
[39]
  IC50: > 2.56 µM
[40]
  IC50: > 2.56 µM
[41]
  IC50: > 2.56 µM
[42]
  IC50: > 2.56 µM
[43]
  IC50: > 2.56 µM
[44]
  IC50: > 2.56 µM
[45]
  IC50: > 2.56 µM
[46]
  IC50: > 2.56 µM
[47]
  IC50: > 2.56 µM
[48]
  IC50: > 2.56 µM
[49]
  IC50: > 2.56 µM

## Cc1ccc(Nc2nccc(N(C)c3ccc4c(C)n(C)nc4c3)n2)cc1S(N)(=O)=O [PAZOPANIB]
[1]
  IC50: > 8 µM
[2]
  IC50: > 8 µM
[3]
  IC50: > 8 µM
[4]
  IC50: > 8 µM
[6]
  IC50: > 8 µM
[8]
  IC50: > 8 µM
[9]
  IC50: > 8 µM
[10]
  IC50: > 8 µM
[11]
  IC50: > 8 µM
[12]
  IC50: > 8 µM
[13]
  IC50: > 8 µM
[14]
  IC50: > 8 µM
[15]
  IC50: > 8 µM
[16]
  IC50: > 8 µM
[17]
  IC50: > 8 µM
[18]
  IC50: > 8 µM
[19]
  IC50: > 8 µM
[20]
  IC50: > 8 µM
[21]
  IC50: > 8 µM
[22]
  IC50: > 8 µM
[23]
  IC50: > 8 µM
[24]
  IC50: > 8 µM
[25]
  IC50: > 8 µM
[26]
  IC50: > 8 µM
[27]
  IC50: > 8 µM
[28]
  IC50: > 8 µM
[29]
  IC50: > 8 µM
[30]
  IC50: > 8 µM
[31]
  IC50: > 8 µM
[32]
  IC50: 4.09 µM
[33]
  IC50: 7.17 µM
[34]
  IC50: > 8 µM
[35]
  IC50: > 8 µM
[36]
  IC50: > 8 µM
[37]
  IC50: > 8 µM
[38]
  IC50: > 8 µM
[39]
  IC50: > 8 µM
[40]
  IC50: > 8 µM
[41]
  IC50: 5.66 µM
[42]
  IC50: > 8 µM
[43]
  IC50: 1.05 µM
[44]
  IC50: > 8 µM
[45]
  IC50: > 8 µM
[46]
  IC50: > 8 µM
[47]
  IC50: > 8 µM
[48]
  IC50: 3.04 µM
[49]
  IC50: > 8 µM

## Cn1cncc1[C@@](N)(c1ccc(Cl)cc1)c1ccc2c(c1)c(-c1cccc(Cl)c1)cc(=O)n2C [TIPIFARNIB]
[1]
  IC50: 10.9 µM
[2]
  IC50: > 16 µM
[3]
  IC50: > 16 µM
[4]
  IC50: > 16 µM
[6]
  IC50: > 16 µM
[8]
  IC50: 5.82 µM
[9]
  IC50: 2.02 µM
[10]
  IC50: > 16 µM
[11]
  IC50: 13 µM
[12]
  IC50: > 16 µM
[13]
  IC50: > 16 µM
[14]
  IC50: > 16 µM
[15]
  IC50: > 16 µM
[16]
  IC50: 8.71 µM
[17]
  IC50: 14.8 µM
[18]
  IC50: > 16 µM
[19]
  IC50: > 16 µM
[20]
  IC50: 6.14 µM
[21]
  IC50: 14.5 µM
[22]
  IC50: > 16 µM
[23]
  IC50: > 16 µM
[24]
  IC50: 4.61 µM
[25]
  IC50: 9.1 µM
[26]
  IC50: > 16 µM
[27]
  IC50: 3.35 µM
[28]
  IC50: > 16 µM
[29]
  IC50: > 16 µM
[30]
  IC50: 4.58 µM
[31]
  IC50: > 16 µM
[32]
  IC50: 0.204 µM
[33]
  IC50: 0.365 µM
[34]
  IC50: 10.5 µM
[35]
  IC50: > 16 µM
[36]
  IC50: 0.871 µM
[37]
  IC50: 7.27 µM
[38]
  IC50: > 16 µM
[39]
  IC50: > 16 µM
[40]
  IC50: > 16 µM
[41]
  IC50: > 16 µM
[42]
  IC50: 3.55 µM
[43]
  IC50: > 16 µM
[44]
  IC50: 13.3 µM
[45]
  IC50: 2.4 µM
[46]
  IC50: 3.99 µM
[47]
  IC50: > 16 µM
[48]
  IC50: 1.14 µM
[49]
  IC50: 1.79 µM
